We go through 31 molecules from patent publication US9856279B2 (AGIOS PHARMACEUTICALS, INC, priority 2011, dated 2018).

Read-outs that look alike come from different tables or passages of the source.

This experiment concerns the target IDH1 R132H (Homo sapiens, UniProt O75874, R132H). As to the kind of experiment: Assay for IDH1 R132H inhibitors (NADPH/aKG, resazurin detection). Format: biochemical. The method, boiled down: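 Read-out is resorufin fluorescence (Ex544/Em590) 5 min after adding a 30 μM resazurin detection mix. Before that, mutant enzyme (0.2 μg/ml in its mix) ran 50 min at room temperature with compound, 8 uM NADPH and 2 mM aKG (mix levels) in Tris pH 7.5 with NaCl, MgCl2, BSA.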
(In general: Resazurin is reduced to fluorescent resorufin, in cell work by metabolically active cells.)

The mark [1] stands for this setting: Table 3, enzyme assay, 50 minutes at room temperature, read-out: IC50 (IDH1 R132H Inhibition).
The mark [2] stands for this setting: enzyme assay of Example 12, read-out: IDH1R132H IC50.

Sequence of IDH1 R132H (O75874 whole entry R132H): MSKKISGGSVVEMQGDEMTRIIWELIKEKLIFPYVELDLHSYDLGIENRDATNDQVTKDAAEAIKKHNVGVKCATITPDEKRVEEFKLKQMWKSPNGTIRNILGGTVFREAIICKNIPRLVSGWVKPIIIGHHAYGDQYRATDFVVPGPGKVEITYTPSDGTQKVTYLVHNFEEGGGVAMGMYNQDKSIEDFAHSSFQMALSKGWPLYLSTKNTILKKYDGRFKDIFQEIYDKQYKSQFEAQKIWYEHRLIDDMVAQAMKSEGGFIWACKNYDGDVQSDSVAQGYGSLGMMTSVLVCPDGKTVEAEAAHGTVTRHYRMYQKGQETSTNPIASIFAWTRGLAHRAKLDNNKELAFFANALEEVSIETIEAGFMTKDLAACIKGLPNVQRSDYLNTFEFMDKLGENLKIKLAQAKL

As for `COCCC(=O)N1CCN(c2nc(C3CC3)c(-c3cccc(C)c3)c(C)c2C#N)C[C@H]1C` [Compound 243, (R)-6-cyclopropyl-2-(4-(3-methoxypropanoyl)-3-methylpiperazin-1-yl)-4-methyl-5-m-tolylnicotinonitrile], the IC50 (commonly the point on the concentration scale where inhibition reaches its midpoint) under setting [1] is not above 1 µM. Still for that read-out and setting: with `COCCC(=O)N1CCN(c2nc(C(C)C)c(-c3ccc(F)cc3)cc2C(=O)OC)C[C@H]1C` [Compound 244, (R)-methyl 5-(4-fluorophenyl)-6-isopropyl-2-(4-(3-methoxypropanoyl)-3-methylpiperazin-1-yl)nicotinate] the figure was 1 to 5 µM. Still for that read-out and setting: for `COCCC(=O)N1CCN(c2nc(C3CC3)c(Cc3ccccc3)c(C)c2C#N)C[C@H]1C` [Compound 245, (R)-5-benzyl-6-cyclopropyl-2-(4-(3-methoxypropanoyl)-3-methylpiperazin-1-yl)-4-methylnicotinonitrile] the value was 1 to 5 µM; for `COCCC(=O)N1CCN(c2nc(C3CC3)c(-c3ccsc3)cc2C#N)C[C@H]1C` [Compound 246, (R)-6-cyclopropyl-2-(4-(3-methoxypropanoyl)-3-methylpiperazin-1-yl)-5-(thiophen-3-yl)nicotinonitrile], not above 1 µM; for `COCCC(=O)N1CCN(c2nc(C3CC3)c(-c3cc4ccccc4s3)cc2C#N)C[C@H]1C` [Compound 247, (R)-5-(benzo[b]thiophen-2-yl)-6-cyclopropyl-2-(4-(3-methoxypropanoyl)-3-methylpiperazin-1-yl)nicotinonitrile], 1 to 5 µM. Regarding `COCCC(=O)N1CCN(c2nc(C3CC3)c(-c3ccc(F)c(Cl)c3)cc2C#N)C[C@H]1C` [Compound 248, (R)-5-(3-chloro-4-fluorophenyl)-6-cyclopropyl-2-(4-(3-methoxypropanoyl)-3-methylpiperazin-1-yl)nicotinonitrile], under setting [1], the IC50 was not above 1 µM. The same measure, in the same setting: with `COCCC(=O)N1CCN(c2nc(C3CC3)c(-c3ccccc3F)cc2C#N)C[C@H]1C` [Compound 249, (R)-6-cyclopropyl-5-(2-fluorophenyl)-2-(4-(3-methoxypropanoyl)-3-methylpiperazin-1-yl)nicotinonitrile] the figure was not above 1 µM; with `COCCC(=O)N1CCN(c2nc(C3CC3)c(-c3ccc(F)cc3F)cc2C#N)C[C@H]1C` [Compound 250, (R)-6-cyclopropyl-5-(2,4-difluorophenyl)-2-(4-(3-methoxypropanoyl)-3-methylpiperazin-1-yl)nicotinonitrile], not above 1 µM. On the same count and under the same terms, with `COCCC(=O)N1CCN(c2nc(C3CC3)c(-c3cccc(OC)c3)c(C)c2C#N)C[C@H]1C` [Compound 251, (R)-6-cyclopropyl-5-(3-methoxyphenyl)-2-(4-(3-methoxypropanoyl)-3-methylpiperazin-1-yl)-4-methylnicotinonitrile] the figure was not above 1 µM; with `COCCC(=O)N1CCN(c2nc(C3CC3)c(-c3ccc(OC)nc3)cc2C#N)C[C@H]1C` [Compound 252, (R)-2-cyclopropyl-6′-methoxy-6-(4-(3-methoxypropanoyl)-3-methylpiperazin-1-yl)-3,3′-bipyridine-5-carbonitrile], not above 1 µM; with `COCCC(=O)N1CCN(c2nc(C3CC3)c(-c3ccc4[nH]ccc4c3)cc2C#N)C[C@H]1C` [Compound 253, (R)-6-cyclopropyl-5-(1H-indol-5-yl)-2-(4-(3-methoxypropanoyl)-3-methylpiperazin-1-yl)nicotinonitrile], not above 1 µM. Same read-out and setting: for `COCCC(=O)N1CCN(c2nc(C(C)C)c(OCc3ccccc3)cc2C#N)C[C@H]1C` [Compound 254, (R)-5-(benzyloxy)-6-isopropyl-2-(4-(3-methoxypropanoyl)-3-methylpiperazin-1-yl)nicotinonitrile] the value was 1 to 5 µM; for `COCCC(=O)N1CCN(c2nc(C3CC3)c(-c3ccc(OC(F)(F)F)cc3)c(C)c2C#N)C[C@H]1C` [Compound 255, (R)-6-cyclopropyl-2-(4-(3-methoxypropanoyl)-3-methylpiperazin-1-yl)-4-methyl-5-(4-(trifluoromethoxy)-phenyl)nicotinonitrile], not above 1 µM.

Consider `COCCC(=O)N1CCN(c2nc(C3CC3)c(-c3ccc(F)cc3F)c(C)c2C#N)C[C@H]1C` [Compound 256, 6-cyclopropyl-5-(2,4-difluorophenyl)-2-((R)-4-(3-methoxypropanoyl)-3-methylpiperazin-1-yl)-4-methyl-nicotinonitrile], for which the IC50 under setting [1] was not above 1 µM.

With `COCCC(=O)N1CCN(c2nc(C3CC3)c(-c3cccc(F)c3)c(C)c2C#N)C[C@H]1C` [Compound 257, (R)-6-cyclopropyl-5-(3-fluorophenyl)-2-(4-(3-methoxypropanoyl)-3-methylpiperazin-1-yl)-4-methylnicotinonitrile], the IC50 under setting [1] was not above 1 µM. Same read-out and setting: for `COCCC(=O)N1CCN(c2nc(C3CC3)c(-c3ccc(C)c(F)c3)c(C)c2C#N)C[C@H]1C` [Compound 258, (R)-6-cyclopropyl-5-(3-fluoro-4-methylphenyl)-2-(4-(3-methoxypropanoyl)-3-methylpiperazin-1-yl)-4-methylnicotinonitrile] the value was not above 1 µM; for `COCCC(=O)N1CCN(c2nc(C3CC3)c(-c3ccc4ccccc4c3)c(C)c2C#N)C[C@H]1C` [Compound 259, (R)-6-cyclopropyl-2-(4-(3-methoxypropanoyl)-3-methylpiperazin-1-yl)-4-methyl-5-(naphthalen-2-yl)nicotinonitrile], not above 1 µM; for `COCCC(=O)N1CCN(c2nc(C3CC3)c(-c3ccncc3)c(C)c2C#N)C[C@H]1C` [Compound 260, (R)-2-cyclopropyl-6-(4-(3-methoxypropanoyl)-3-methylpiperazin-1-yl)-4-methyl-3,4′-bipyridine-5-carbonitrile], not above 1 µM. The same measure, in the same setting: with `COCCC(=O)N1CCN(c2nc(C3CC3)c(-c3ccc4c(c3)OCO4)c(C)c2C#N)C[C@H]1C` [Compound 261, (R)-5-(benzo[d][1,3]dioxol-5-yl)-6-cyclopropyl-2-(4-(3-methoxypropanoyl)-3-methylpiperazin-1-yl)-4-methylnicotinonitrile] the figure was not above 1 µM.

As for `COCCC(=O)N1CCN(c2nc(C3CC3)c(-c3ccsc3)c(C)c2C#N)C[C@H]1C` [Compound 262, (R)-6-cyclopropyl-2-(4-(3-methoxypropanoyl)-3-methylpiperazin-1-yl)-4-methyl-5-(thiophen-3-yl)nicotinonitrile], the IC50 under setting [1] was not above 1 µM.

Regarding `COCCC(=O)N1CCN(c2nc(C3CC3)c(-c3cccs3)cc2C#N)C[C@H]1C` [Compound 273, (R)-6-cyclopropyl-2-(4-(3-methoxypropanoyl)-3-methylpiperazin-1-yl)-5-(thiophen-2-yl)nicotinonitrile], the IC50 under setting [2] lay within 0.5 to 1 µM. On to `COCCC(=O)N1CCN(c2nc(C3CC3)c(OCc3ccc(OC)cc3)cc2C#N)C[C@H]1C` [Compound 281, (R)-6-cyclopropyl-5-(4-methoxybenzyloxy)-2-(4-(3-methoxypropanoyl)-3-methylpiperazin-1-yl)nicotinonitrile], for which, under setting [2], the IC50 was 0.5 to 1 µM. Turning to `COCCC(=O)N1CCN(c2nc(C3CC3)c(-c3ccc(-c4ccccc4)c(F)c3)c(C)c2C#N)C[C@H]1C` [Compound 282, (R)-6-cyclopropyl-5-(2-fluorobiphenyl-4-yl)-2-(4-(3-methoxypropanoyl)-3-methylpiperazin-1-yl)-4-methylnicotinonitrile], the IC50 under setting [2] was 0.5 to 1 µM. As to `COCCC(=O)N1CCN(c2nc(C3CC3)c(-c3cccc(NC(C)=O)c3)cc2C#N)C[C@H]1C` [Compound 284, (R)—N-(3-(5-cyano-2-cyclopropyl-6-(4-(3-methoxypropanoyl)-3-methylpiperazin-1-yl)pyridin-3-yl)phenyl)acetamide], the IC50 under setting [2] lay in the range of 0.5 to 1 µM. The same measure, in the same setting: with `COCCC(=O)N1CCN(c2nc(C3CC3)c(-c3ccc4cc[nH]c4c3)cc2C#N)C[C@H]1C` [Compound 289, (R)-6-cyclopropyl-5-(1H-indol-6-yl)-2-(4-(3-methoxypropanoyl)-3-methylpiperazin-1-yl)nicotinonitrile] the figure was less than 0.5 µM; with `COCCC(=O)N1CCN(c2nc(C3CC3)c(-c3ccc(F)c4ccccc34)cc2C#N)C[C@H]1C` [Compound 290, (R)-6-cyclopropyl-5-(4-fluoronaphthalen-1-yl)-2-(4-(3-methoxypropanoyl)-3-methylpiperazin-1-yl)nicotinonitrile], less than 0.5 µM; with `COCCC(=O)N1CCN(c2nc(C3CC3)c(-c3cccc(CC(=O)OC)c3)cc2C#N)C[C@H]1C` [Compound 291, (R)-methyl 2-(3-(5-cyano-2-cyclopropyl-6-(4-(3-methoxypropanoyl)-3-methylpiperazin-1-yl)pyridin-3-yl)phenyl)acetate], 0.5 to 1 µM. On the same count and under the same terms, with `COCCC(=O)N1CCN(c2nc(C3CC3)c(-c3ccc(F)cc3)c(COC)c2C#N)C[C@H]1C` [Compound 298, (R)-6-cyclopropyl-5-(4-fluorophenyl)-4-(methoxymethyl)-2-(4-(3-methoxypropanoyl)-3-methylpiperazin-1-yl)nicotinonitrile] the figure was 0.5 to 1 µM. Take `Cc1c(C#N)c(N2CCN(C(=O)CC(F)(F)F)[C@H](C3CC3)C2)nc(C2CC2)c1-c1ccc(F)cc1` [Compound 300, (R)-6-cyclopropyl-2-(3-cyclopropyl-4-(3,3,3-trifluoropropanoyl)piperazin-1-yl)-5-(4-fluorophenyl)-4-methylnicotinonitrile]: under setting [2], the IC50 was in the range of 0.5 to 1 µM. Still for that read-out and setting: for `COCCC(=O)N1CCN(c2nc(C3CC3)c(-c3cccc(C(N)=O)c3)cc2C#N)C[C@H]1C` [Compound 305, (R)-3-(5-cyano-2-cyclopropyl-6-(4-(3-methoxypropanoyl)-3-methylpiperazin-1-yl)pyridin-3-yl)benzamide] the value was 0.5 to 1 µM. With `COCCC(=O)N1CCN(c2nc(C3CC3)c(-c3cccc(CO)c3)cc2C#N)C[C@H]1C` [Compound 306, (R)-6-cyclopropyl-5-(3-(hydroxymethyl)phenyl)-2-(4-(3-methoxypropanoyl)-3-methylpiperazin-1-yl)nicotinonitrile], the IC50 under setting [2] lay within 0.5 to 1 µM.
